In one assay the target is human α4β2 (Homo sapiens, UniProt P17787+P43681). The assay is described as follows: Competition binding to human α4β2 receptors in membrane preparations. The settings on record: membranes, [3H]-nicotine competition; Ki by Cheng-Prusoff; read-out: human α4β2 Ki. On the procedure: (§1) SH-EP1/human α4β2 (Eaton et al., 2003), SH-EP1/human α4β4 (Gentry et al., 2003), SH-EP1/α6β3β4α5 (Grinevich et al., 2005), TE671/RD and SH-SY5Y cell lines (obtained from Dr. Ron Lukas, Barrow Neurological Institute) were maintained in proliferative growth phase in Dulbecco's modified Eagle's medium (Gibco/BRL) with 10% horse serum (Gibco BRL), 5% fetal bovine serum (HyClone, Logan Utah), 1 mM sodium pyruvate, 4 mM L-glutamine. For maintenance of stable transfectants, the α4β2 and α4β4 cell media was supplemented with 0.25 mg/mL zeocin and 0.13 mg/mL hygromycin B. Selection was maintained for the α6β3β4α5 cells with 0.25 mg/mL of zeocin, 0.13 mg/mL of hygromycin B, 0.4 mg/mL of geneticin, and 0.2 mg/mL of blasticidin. HEK/human α7/RIC3 cells (obtained from J. Lindstrom, U. Pennsylvania) were maintained in proliferative growth phase in Dulbecco's modified Eagle's medium (Gibco/BRL) with 10% fetal bovine serum (HyClone, Logan Utah), 1 mM sodium pyruvate, 4 mM L-glutamine, 0.4 mg/mL geneticin; 0.2 mg/ml hygromycin B.
(§2) Preparation of membranes from rat tissues. Rat cortices were obtained from Analytical Biological Services, Incorporated (ABS, Wilmington, Del.). Tissues were dissected from female Sprague-Dawley rats, frozen and shipped on dry ice. Tissues were stored at −20° C. until needed for membrane preparation. Cortices from 10 rats were pooled and homogenized by Polytron (Kinematica GmbH, Switzerland) in 10 volumes (weight:volume) of ice-cold preparative buffer (KCl, 11 mM; KH2PO4, 6 mM; NaCl 137 mM; Na2HPO4 8 mM; HEPES (free acid), 20 mM; iodoacetamide, 5 mM; EDTA, 1.5 mM; 0.1 mM PMSF pH 7.4). The resulting homogenate was centrifuged at 40,000 g for 20 minutes at 4° C. and the resulting pellet was resuspended in 20 volumes of ice-cold water. After 60-minute incubation at 4° C., a new pellet was collected by centrifugation at 40,000 g for 20 minutes at 4° C. The final pellet was resuspended in preparative buffer and stored at −20° C. On the day of the assay, tissue was thawed, centrifuged at 40,000 g for 20 minutes and then resuspended in PBS (Dulbecco's Phosphate Buffered Saline, Life Technologies, pH 7.4) to a final concentration of 2-3 mg protein/mL. Protein concentrations were determined using the Pierce BCA Protein Assay kit (Pierce Biotechnology, Rockford, Ill.), with bovine serum albumin as the standard. Preparation of membranes from clonal cell lines. Cells were harvested in ice-cold PBS, pH 7.4, then homogenized with a polytron (Brinkmann Instruments, Westbury, N.Y.). Homogenates were centrifuged at 40,000 g for 20 minutes (4° C.). The pellet was resuspended in PBS and protein concentration determined using the Pierce BCA Protein Assay kit (Pierce Biotechnology, Rockford, Ill.).
(§3) Competition binding to receptors in membrane preparations. Binding to nicotinic receptors was assayed on membranes using standard methods adapted from published procedures (Lippiello and Fernandes, 1986; Davies et al., 1999). In brief, membranes were reconstituted from frozen stocks (approximately 0.2 mg protein) and incubated for 2 h on ice in […] assay buffer (PBS) in the presence of competitor compound (0.001 nM to […]) and radioligand. [^3H]-nicotine (L-(−)-[N-methyl-3H]-nicotine, 69.5 Ci/mmol, Perkin-Elmer Life Sciences) was used for human α4β2 binding studies. [^3H]-epibatidine (52 Ci/mmol, Perkin-Elmer Life Sciences) was used for binding studies at the other receptor subtypes. Incubation was terminated by rapid filtration on a multimanifold tissue harvester (Brandel, Gaithersburg, Md.) using GF/B filters presoaked in 0.33% polyethyleneimine (w/v) to reduce non-specific binding. Filters were washed 3 times and the radioactivity retained was determined by liquid scintillation counting.
(§4) Binding data analysis. Binding data were expressed as percent total control binding. Replicates for each point were averaged and plotted against the log of drug concentration. […]

In a further assay the target is T1, Rat α4β2 (Rattus norvegicus, UniProt P09483+P12390).
T1 construct: Preparation of membranes from rat tissues; Rat cortices were obtained from Analytical Biological Services; tissue Analytical Biological Services, Incorporated (ABS, Wilmington, Del.); host or cells: rat cortex membranes (female Sprague-Dawley)
Nature of the assay: Competition binding to rat α4β2 receptors in membrane preparations. On the procedure:
as §2, §3
Binding data analysis. Binding data were expressed as percent total control binding. Replicates for each point were averaged and plotted against the log of drug concentration. The IC50 (concentration of the compound that produces 50% inhibition of binding) was determined by least squares non-linear regression using GraphPad Prism software (GraphPAD, San Diego, Calif.). Ki was calculated using the Cheng-Prusoff equation (Cheng and Prusoff, 1973).

The target of another assay is T2, Human α7 (Homo sapiens, UniProt P36544).
T2 construct: host or cells: HEK cells co-expressing RIC3
Nature of the assay: Competition binding to human α7 receptors in membrane preparations. Conditions: membranes, [3H]-epibatidine competition; Ki by Cheng-Prusoff; read-out: Human α7 Ki. As for the experimental part: as §1, §2, §3, §4

Setting [1] is: membranes, [3H]-epibatidine competition, Ki by Cheng-Prusoff, read-out: Rat α4β2 Ki.

Read-outs that look alike come from different tables or passages of the source.

For orientation: Ki means the equilibrium dissociation constant of an inhibitor or competing ligand from its target. With `Clc1cccc(N2CC3CNCC(C2)O3)c1Cl` [3-(2,3-dichlorophenyl)-9-oxa-3,7-diazabicyclo[3.3.1]nonane], the Ki on human α4β2 was 9600 nM.

Regarding `CN1CC2CN(c3cncc(Oc4ccccc4Cl)c3)CC(C1)O2` [3-(5-(2-chlorophenoxy)pyridin-3-yl)-7-methyl-9-oxa-3,7-diazabicyclo[3.3.1]nonane], the figures for the Ki on Rat α4β2 (setting [1]) and on human α4β2 were 1200 nM and 84 nM, respectively.

Regarding `N#Cc1cc(N2CC3CNCC(C2)O3)cnc1F` [3-(5-cyano-6-fluoropyridin-3-yl)-9-oxa-3,7-diazabicyclo[3.3.1]nonane], the Ki at Rat α4β2 came to 24 nM; at human α4β2 it was 19 nM; on Human α7 it was 16000 nM.

Take `Fc1cc(F)cc(N2CC3CNCC(C2)O3)c1` [3-(3,5-difluorophenyl)-9-oxa-3,7-diazabicyclo[3.3.1]nonane]: the Ki at Rat α4β2 is 97 nM; on human α4β2 it was 27 nM.

Consider `CN1CC2CN(c3ccc(Cl)nn3)CC(C1)O2` [3-(6-chloropyridazin-3-yl)-7-methyl-9-oxa-3,7-diazabicyclo[3.3.1]nonane], for which the inhibition constant (Ki) on human α4β2 worked out at 29000 nM.

For the compound `FCCCCOc1cc(N2CC3CNCC(C2)O3)cnc1Cl` [3-(5-(4-fluorobutoxy)-6-chloropyridin-3-yl)-9-oxa-3,7-diazabicyclo[3.3.1]nonane], the Ki is 0.35 nM at Rat α4β2, 0.3 nM on human α4β2 and 1500 nM at Human α7.

Take `CN1CC2CN(c3cnc(Cl)c(Cl)c3)CC(C1)O2` [3-methyl-7-(5,6-dichloropyridin-3-yl)-9-oxa-3,7-diazabicyclo[3.3.1]nonane]: the inhibitory constant (Ki) at Rat α4β2 is 33 nM; on human α4β2 it was 24 nM.

`Brc1cncc(N2CC3CNCC(C2)O3)c1` [3-(5-bromopyridin-3-yl)-9-oxa-3,7-diazabicydo[3.3.1]nonane]: the Ki at Rat α4β2 was determined as 2.7 nM; at human α4β2, 2.1 nM.

Regarding `FC1(F)Oc2ccc(N3CC4CNCC(C3)O4)cc2O1` [3-(2,2-difluorobenzo[d][1,3]dioxol-5-yl)-9-oxa-3,7-diazabicyclo[3.3.1]nonane], the Ki came out at 700 nM on human α4β2 and 90000 nM at Human α7.

On to `CN(C)c1ccc(N2CC3CNCC(C2)O3)cn1` [3-(6-dimethylaminopyridin-3-yl)-9-oxa-3,7-diazabicyclo[3.3.1]nonane], for which, on human α4β2, the inhibition constant (Ki) came to 1200 nM.

As for `CN1CC2CN(c3cncc(Cl)c3)CC(C1)O2` [3-(5-chloropyridin-3-yl)-7-methyl-9-oxa-3,7-diazabicyclo[3.3.1]nonane], the Ki at Rat α4β2 (setting [1]) came to 1600 nM; at human α4β2, 77 nM.

With `c1ccc(-c2ccc(N3CC4CNCC(C3)O4)nn2)cc1` [3-(6-phenylpyridazin-3-yl)-9-oxa-3,7-diazabicyclo[3.3.1]nonane], the Ki on human α4β2 turned out to be 380 nM.

For `CN1CC2CN(c3cccc(Cl)c3Cl)CC(C1)O2`, the inhibition constant (Ki) at human α4β2 worked out at 5200 nM.

Turning to `CN1CC2CN(c3ccc(Cl)nc3)CC(C1)O2` [3-(6-chloropyridin-3-yl)-7-methyl-9-oxa-3,7-diazabicyclo[3.3.1]nonane], the Ki is 1800 nM on Rat α4β2 (setting [1]) and 120 nM at human α4β2.

For `Fc1cccc(N2CC3CNCC(C2)O3)c1F` [3-(2,3-difluorophenyl)-9-oxa-3,7-diazabicyclo[3.3.1]nonane], the Ki on human α4β2 turned out to be 260 nM.

With `CN1CC2CN(c3cnc(Br)nc3)CC(C1)O2` [3-(2-bromopyrimidin-5-yl)-7-methyl-9-oxa-3,7-diazabicyclo[3.3.1]nonane], the Ki on human α4β2 was 2000 nM.

For `N#Cc1ccncc1N1CC2CNCC(C1)O2` [3-(4-cyanopyridin-3-yl)-9-oxa-3,7-diazabicyclo[3.3.1]nonane], the Ki at human α4β2 worked out at 860 nM.

As for `CN1CC2CN(c3ccc(C(F)(F)F)nc3)CC(C1)O2` [3-(6-trifluoromethyl-pyridin-3-yl)-7-methyl-9-oxa-3,7-diazabicyclo[3.3.1]nonane], on human α4β2, the Ki was found to be 1000 nM.

For the compound `COc1cccc(N2CC3CN(C)CC(C2)O3)c1` [3-(3-methoxyphenyl)-7-methyl-9-oxa-3,7-diazabicyclo[3.3.1]nonane], the Ki at human α4β2 came to 1600 nM.

For the compound `Clc1ccncc1N1CC2CNCC(C1)O2` [3-(4-chloropyridin-3-yl)-9-oxa-3,7-diazabicydo[3.3.1]nonane], the Ki at human α4β2 worked out at 250 nM.

As to `CN1CC2CN(c3cnccc3Cl)CC(C1)O2` [3-(4-chloropyridin-3-yl)-7-methyl-9-oxa-3,7-diazabicyclo[3.3.1]nonane], at human α4β2, the Ki amounted to 180 nM.

Turning to `c1ccc(N2CC3CNCC(C2)O3)nc1` [3-(pyridin-2-yl)-9-oxa-3,7-diazabicyclo[3.3.1]nonane], the Ki at Rat α4β2 (setting [1]) came to 350 nM; at human α4β2, 100 nM.

In the case of `CN1CC2CN(c3ccc(F)nc3)CC(C1)O2` [3-(6-fluoropyridin-3-yl)-7-methyl-9-oxa-3,7-diazabicyclo[3.3.1]nonane], the Ki was found to be 1100 nM on Rat α4β2 (setting [1]) and 140 nM on human α4β2.

Take `CN1CC2CN(c3cc(F)cc(F)c3)CC(C1)O2` [3-(3,5-difluorophenyl)-7-methyl-9-oxa-3,7-diazabicyclo[3.3.1]nonane]: the results for the inhibition constant Ki on Rat α4β2 (setting [1]) and on human α4β2 were 510 nM and 86 nM, respectively.

For the compound `CN1CC2CN(c3cncnc3)CC(C1)O2` [3-(pyrimidin-5-yl)-7-methyl-9-oxa-3,7-diazabicyclo[3.3.1]nonane], at human α4β2, the Ki was 270 nM.

In the case of `COc1cc(N2CC3CNCC(C2)O3)cnc1Cl` [3-(5-methoxy-6-chloropyridin-3-yl)-9-oxa-3,7-diazabicyclo[3.3.1]nonane], the Ki on Rat α4β2 is 1 nM; at human α4β2, 0.4 nM.

Regarding `Cc1ccc(N2CC3CN(C)CC(C2)O3)cn1` [3-(6-methylpyridin-3-yl)-7-methyl-9-oxa-3,7-diazabicyclo[3.3.1]nonane], the inhibition constant Ki turned out to be 1700 nM on Rat α4β2 (setting [1]) and 150 nM on human α4β2.

For the compound `CN1CC2CN(c3cncc(C#N)c3)CC(C1)O2` [3-(5-cyanopyridin-3-yl)-7-methyl-9-oxa-3,7-diazabicyclo[3.3.1]nonane], the inhibitory constant (Ki) on human α4β2 is 260 nM.

Turning to `[O-][n+]1cc(F)cc(N2CC3CNCC(C2)O3)c1` [3-(5-fluoro-pyridine-1-oxide-3-yl)-9-oxa-3,7-diazabicyclo[3.3.1]nonane], the Ki came out at 590 nM at human α4β2 and 54000 nM at Human α7.

As for `COc1ccc(N2CC3CNCC(C2)O3)cn1` [3-(6-methoxypyridin-3-yl)-9-oxa-3,7-diazabicyclo[3.3.1]nonane], the Ki at human α4β2 stood at 200 nM.

In the case of `CN1CC2CN(c3cncc(Oc4ccc(Cl)c(Cl)c4)c3)CC(C1)O2` [3-(5-(3,4-dichlorophenoxy)pyridin-3-yl)-7-methyl-9-oxa-3,7-diazabicyclo[3.3.1]nonane], the results for the Ki on Rat α4β2 (setting [1]) and on human α4β2 were 400 nM and 62 nM, respectively.

Consider `COc1ccncc1N1CC2CNCC(C1)O2` [3-(4-methoxypyridin-3-yl)-9-oxa-3,7-diazabicyclo[3.3.1]nonane], for which the results for the Ki at Rat α4β2 (setting [1]) and on human α4β2 were 580 nM and 120 nM, respectively.

For the origin of these results see US20110257168A1, “DERIVATIVES OF OXABISPIDINE AS NEURONAL NICOTINIC ACETYLCHOLINE RECEPTOR LIGANDS” (Targacept, Inc., priority 2008, published 2011).
